Laboratory results taken from ChEMBL document CHEMBL3507680, “University of Dundee, Gates Library screen for HepG2 cell viability”.

Assay: Human HepG2 cell viability assay in 384 well format
Type: toxicity, cell-based
Set-up: dose 125 nL, time 70.5 hour; concentration not given beside the values
Conditions: HepG2 cells, read-out: Inhibition

Compound | cytotoxicity at 70.5 h [%]
Cc1nnc2n1CCN(C(=O)c1ccn(-c3cccc(F)c3)n1)C2 | 5.14
CCN1CCN(C)C(=O)C12CCN(Cc1ccsc1)CC2 | -13
CN1CCCN(C(=O)c2ccnn2-c2ccc3ccccn23)CC1 | 12.9
Cc1ccc2c(n1)N(C)CCN(Cc1ccco1)C2 | -1.42
CC(O)CN1CCN(C(=O)c2cnc(OC(C)C)c(Cl)c2)CC1 (stereo unspecified) | 5
Cc1nc(CN2C[C@@H]3CN(C(=O)c4ccnnc4)C[C@@H]3C2=O)cs1 | -3.08
O=C(NC1CCN(C(=O)C2CCCCC2)C1)c1ccncc1Cl (stereo unspecified) | -9.33
CN1CCN(Cc2cnn(-c3ccccc3Cl)c2)[C@H]2CS(=O)(=O)C[C@H]21 | -5.22
Cn1cc(CN2CCC(CCC(=O)NCc3ccc(F)cc3)CC2)cn1 | 4.72
Cc1cc(N2CCC(NC(C)Cc3ccsc3)CC2)nc(N)n1 (stereo unspecified) | 32.9
c1ccc2oc(CCCN3CCCCC3Cn3cncn3)nc2c1 (stereo unspecified) | -7.94
COc1ccc(-n2cc(CNC(=O)c3cc[nH]n3)nn2)cc1 | -3.5
CC(C)c1nccn1-c1cncc(C2CCCN(C3CCCC3)C2)n1 (stereo unspecified) | 19.3
CCN(C)C(=O)NCC1(CN2CCOCC2)CCCCC1 | -4.49
Cc1cnn(CC2CN(CCc3ccncc3)CCO2)c1 (stereo unspecified) | 0.973
CCc1ncc(CNCc2cccnc2N(C)C)cn1 | -12.1
COc1cc2c(cc1OC)CN(C(=O)NC(C)c1nncn1C)CC2 (stereo unspecified) | 26.1
COCc1ccccc1CNCc1c(C)nn(C)c1N(C)C | -0.163
CN(CCCC1CCCO1)S(=O)(=O)NCc1ccccc1 (stereo unspecified) | 10.8
CC1CCN(CCNC(=O)c2ccn(-c3ccccc3)n2)CC1 | -6.14
CCC1CN(C(=O)COc2ccc(C(=O)NC3CC3)cc2)CCO1 (stereo unspecified) | -2.32
O=C(NCc1nnc2n1CCCC2)c1ccc(C2CCCO2)s1 (stereo unspecified) | 18.3
Cc1cc(CN2CCN(c3ccc4nncn4n3)C(C)C2)on1 (stereo unspecified) | 20
CCOCCC(=O)N(CCC#N)c1ccc(C)c(C)c1 | -1.94

Compound | cytotoxicity at 70.5 h [%]
CCc1nc(C2CCCN(c3nccc(N4CCCC4)n3)C2)no1 (stereo unspecified) | -0.206
O=C(Nc1ccccc1F)C1=NOC2(CCNCC2)C1 | -2.62
CCC(CC)C(O)CNC(=O)Nc1cc(C)nn1C (stereo unspecified) | -17.8
COCCNc1ccc(-c2noc([C@@H]3CCCN3)n2)cn1 | 6.15
O=C(c1cccnc1)N1C[C@@H]2CC[C@H](C1)N(Cc1cc(F)ccc1F)C2 | -5.88
CC(C)SCCNC(=O)c1cccc2ccnn12 | -9.35
COc1cccc(CN2CCC3(CC2)CCN(c2ncc(C)cn2)C3)c1 | -0.283
CCn1cncc1-c1nc2c([nH]1)CC(C)(C)CNC2=O | -3.18
COc1ccc(CNC(C)Cn2cccn2)c(OC)c1OC (stereo unspecified) | -7.21
CC(C(=O)N1CCn2cncc2C1)N1C[C@@H](C)O[C@@H](C)C1 (stereo partly specified) | 0.983
CC(=O)c1ccc(C(=O)N2CCC(c3cc(O)nc(C)n3)CC2)s1 | -10.9
O=C(Cc1ccon1)N(CCC(F)(F)F)C1CCCC1 | -3.19
O=C1CCNc2cc3c(cc2CN1Cc1ccco1)OCO3 | -5.93
CN(Cc1ccccn1)C1CCCN(Cc2noc(C3CC3)n2)C1 (stereo unspecified) | -8.62
Cc1ccc(CNC(C)c2ccc3[nH]c(=O)[nH]c3c2)s1 (stereo unspecified) | -1.82
CCS(=O)(=O)NC(CCSC)C(=O)Nc1ccccc1C (stereo unspecified) | -92
CC(C)c1ncc2c(n1)CN(CCCc1nc3ccccc3o1)CC2 | -3.98
Cc1sc(NC(=O)CCC(=O)O)c(C(N)=O)c1-c1ccc(Cl)cc1Cl | -1.16
COCCN1CCN(CCS(=O)(=O)C(F)(F)F)CC1C (stereo unspecified) | -6.2
COc1ccccc1[C@@H]1CN(Cc2csc(C(C)=O)c2)C[C@H]1C(=O)O | -3.94
COCC(=O)NC1(c2cccc(C(F)(F)F)c2)CCC1 | -14.5
CCn1c(NCC2CCCO2)nc2c(C)nn(C)c2c1=O (stereo unspecified) | -7.98
Cc1cc(N[C@H]2CCCC[C@@H]2O)n2nccc2n1 | 5.62
Cc1ccccc1CNc1ccccc1OCC(=O)N1CCOCC1 | -3.34

Compound | cytotoxicity at 70.5 h [%]
COc1ccc([C@@H]2CN(C(=O)Cc3cccs3)C[C@H]2NC(C)=O)cc1 | -4.36
CC(C)N1CCC(Cc2cncc(-c3cccc(C(=O)O)c3)n2)C1 (stereo unspecified) | -5.63
Cn1cnnc1S(=O)(=O)C1CCN(C(=O)c2cccs2)CC1 | -10.5
CC(=O)N1Cc2nccn2CC(CNC(=O)c2ccnnc2)C1 (stereo unspecified) | 9.01
Cc1nn(C)c2c(NCc3ccc(F)cc3)nc(C3CC3)nc12 | -5.76
O=S(=O)(C1CC1)N1CCC2(CC1)COC(COc1ccccn1)C2 (stereo unspecified) | -5.06
CCOc1ccc(Cl)c(C(=O)NC)n1 | 0.647
COc1ccc2c(ccn2CCC(=O)NCCCC(=O)O)c1 | -10.4
CN(Cc1noc(-c2ccccc2)n1)C(=O)CSc1nnc(N)s1 | 14.3
O=C(CN1CCCCCC1)NCc1cccnc1Oc1ccccc1 | -2.72
COc1cccc(-c2nccnc2C2CCN(C(C)=O)CC2)c1 | -8.61
COCC1CN(Cc2ccc(F)cc2)Cc2nn(C)cc21 (stereo unspecified) | -3
O=c1c2cc3c(cc2nnn1Cc1cccc(F)c1)OCCO3 | -9.5
CN(Cc1cccc(-n2cccn2)c1)Cc1cccs1 | -11
CC(C)CN(Cc1nc2c(cnn2C)c(=O)[nH]1)CC(C)C | -5.64
COc1ccc(F)c(-c2ncccc2NC(=O)C(C)C)c1 | 6.17
N#Cc1cccnc1N1CCC(Nc2ccccc2)C1 (stereo unspecified) | -8.64
CC(=O)N1CCCC(c2ccnc(Nc3cnccn3)n2)C1 (stereo unspecified) | -7.2
O=C(C1CCCc2[nH]ncc21)N1CCCC1 (stereo unspecified) | -4.89
Cc1cc(CNC(=O)c2cc(NC(=O)C(C)C)ccc2Cl)no1 | 13.5
Cc1ccc(OC2(C(=O)NC(C)c3csc(C)n3)CCNCC2)cc1 (stereo unspecified) | 22.5
CCn1cc(C(=O)N2CCOCC2)cn1 | -3.04
Cc1cn(-c2ccccc2)nc1NS(=O)(=O)c1cccc(C(=O)O)c1 | -1.1
N#Cc1ncn(CCS(=O)(=O)c2ccccc2)n1 | -16.8

Compound | cytotoxicity at 70.5 h [%]
CCNc1ncc(C(=O)NCc2ccc(F)c(C(F)(F)F)c2)cn1 | 20.6
Cc1ccc(NC2CCN(C(=O)Cc3ccc(C)s3)CC2)nn1 | -7.07
COC[C@@]12CCO[C@@H]1CCN(Cc1ccccc1F)C2 | -9.38
CCn1cnnc1CN(C)c1nccc(C2CCCC2)n1 | -7.13
Cc1cc(CN(C)CC2(O)CCCN(CCC3CCCCC3)C2=O)no1 (stereo unspecified) | 48.7
Cc1cc2n(n1)CCN(c1nc(N(C)C)nc3c1CCNC3)C2 | 14.4
CN(Cc1ccc(Br)o1)C(=O)Nc1cccnc1 | -5.06
Cc1nc([C@H]2C[C@@H]3CCN(Cc4scnc4C)C[C@H]3O2)no1 | -5.9
CNC(=O)C(CC(C)C)NC(=O)c1cccc(-c2nc(C)cs2)c1 (stereo unspecified) | 15.4
c1cncc(CN2CCCC3(COCCN(c4cnccn4)C3)C2)c1 (stereo unspecified) | -5.18
Cc1ccc(C2CSCCN2C(=O)NCc2cccnc2)cc1 (stereo unspecified) | -10.1
Cc1nn(C)c(N2CCOCC2)c1CNCc1ccc(C(C)O)cc1 (stereo unspecified) | -11.7
CN1CCC(N2CCC(c3ccccc3C(=O)O)C2)CC1 (stereo unspecified) | -0.525
CC(=O)N1CCCC2(CN(Cc3ccc(F)cc3)CCO2)C1 (stereo unspecified) | 2.34
NC(=O)CC1CCN(c2ncnc3cccc(F)c23)CC1 | -3.61
Cc1cc(NC(=O)NCCc2ccc3c(c2)OCCO3)n(C)n1 | -4.79
C=C(C)COc1ccc(C(=O)NCC2CC(CC)=NO2)cc1 (stereo unspecified) | -15.2
COc1cccc(-c2ccnc3nc(N4CCCCC4)[nH]c(=O)c23)c1 | 17.7
CC(c1nc(C2CC2)no1)N1CCN(CCOCC(F)(F)F)CC1 (stereo unspecified) | -8.3
Cc1nc2ccc(C(=O)N3CCN(CCO)[C@@H]4CS(=O)(=O)C[C@@H]43)cc2o1 | -5.42
Cc1nn(C)c(C)c1NC(=O)CCn1ncc2c(C)cccc21 | -5.31
CCC(CC)NCC(C)Oc1cccnc1 (stereo unspecified) | -2.86
c1cc(-c2cscn2)cc(N2CCC(NCCc3cccs3)CC2)c1 | 0.55
COc1ncc(CN2CCCC(c3[nH]ncc3S(C)(=O)=O)C2)cn1 (stereo unspecified) | -7.31

Compound | cytotoxicity at 70.5 h [%]
CCOCC(=O)N(C)c1ccc(F)c(Cl)c1 | -2.55
CN(C)c1ncccc1CNC(=O)N(Cc1ccccc1F)C1CC1 | -4.47
COCCCNC(=O)c1nnsc1-c1ccccc1 | -14.7
CCN1CC2(CCCCN2C(=O)c2ccn(C)n2)CC1=O (stereo unspecified) | 0.273
CC(Oc1cccc(Cl)c1)C(=O)Nc1cnn(CC(=O)NC2CC2)c1 (stereo unspecified) | -17.2
CCOCC1CCCN(C(=O)NCc2ccc(-c3ccn[nH]3)cc2)C1 (stereo unspecified) | 12.5
CCn1cnnc1C1CCN(C(=O)c2cnn(C(C)(C)C)c2)CC1 | -5.89
Cc1cc(Cl)ccc1C(=O)N1C[C@H](C2CC2)[C@@H](N)C1 | -1.61
Cc1cccc(C(=O)N(CCCO)S(=O)(=O)c2cccs2)c1 | -0.969
CCn1cnc2c(cnn2-c2cccc(C)c2C)c1=O | 45.8
CCOCCn1c(=O)[nH]c2cc(C(=O)N(C)Cc3cnn(C)c3)ccc21 | -4.48
CCn1c(C2CCCN(Cc3cccc4cnccc34)C2)nn(C)c1=O (stereo unspecified) | -7.71
COc1ccc(COCC(O)CN(C)c2ccc(C)cc2C)cc1 (stereo unspecified) | 0.463
CN(C)C(=O)COCc1cncc2c1CCN(Cc1nccn1C)C2 | -7.66
Cc1ccc(NS(=O)(=O)c2cc3c(c(C(=O)O)c2)OCCO3)cc1C | -5.96
COc1ccc2cc(CN(C)C(C)c3nc(C(C)(C)C)no3)ccc2c1 (stereo unspecified) | -5.37
Cc1cc(CN2CCC=C(CN(C)C(=O)c3ccco3)C2)no1 | -7.11
Cc1nc(-c2ccccc2)cc(C2CCNCC2)n1 | 7.58
CCN(CC)CCCNC(=O)c1nn(CC)cc1Cl | 2.52
Cc1cc(NC(=O)C(c2cccc(F)c2)N2CCOCC2)sn1 (stereo unspecified) | 8.13
